One test has as its system IL-1β production in PMA-differentiated THP-1 cells. Description: IL-1β production in PMA-differentiated THP-1 cells stimulated with gramicidin (hTHP-1 assay, 2% fetal bovine serum; Procedures 1-3). In kind it is cell-based, human. To be noted: Homo sapiens, THP-1, hTHP-1 assay containing 2% fetal bovine serum, Table B2, class symbols; read-out: IC50. In short, it runs like this:
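PMA-primed THP-1 cells (20 ng/ml PMA, 16-18 h) in RPMI with 2% FBS were pre-incubated with compounds for 1 h, from 100 μM downward in 3-fold steps (0.37% DMSO final), then stimulated with 5 μM gramicidin for 2 h. IL-1β in the supernatant was quantified by HTRF.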
Consider `NS(=O)(=NC(=O)Nc1c2c(cc3c1CCC3)CCC2)c1ccc(C2CCN2)cc1` (stereo not shown) [Example 444, 4-(Azetidin-2-yl)-N′-((1,2,3,5,6,7-hexahydro-s-indacen-4-yl)carbamoyl)benzenesulfonimidamide], for which the IC50 lay within 1000 to 5000 nM.
Turning to `CN[C@H]1COc2c(S(N)(=O)=NC(=O)Nc3c4c(cc5c3CCC5)CCC4)cnn2C1` (stereo partly drawn) [Example 445, (6R)-N′-((1,2,3,5,6,7-hexahydro-s-indacen-4-yl)carbamoyl)-6-(methylamino)-6,7-dihydro-5H-pyrazolo[5,1-b][3]oxazine-3-sulfonimidamide], the IC50 fell in the range of 40 to 200 nM.
For `CN(C)Cc1ccc(S(N)(=O)=NC(=O)Nc2c3c(cc4c2CC4)CCC3)cc1` (stereo not shown) [Example 446, 4-((Dimethylamino)methyl)-N′-(2,4,5,6-tetrahydro-1H-cyclobuta[f]inden-3-ylcarbamoyl)benzenesulfonimidamide], the IC50 lay within 200 to 1000 nM.
For `CNCc1ccc(S(N)(=O)=NC(=O)Nc2c3c(cc4c2CC4)CCC3)cc1` (stereo not shown) [Example 448, 4-((Methylamino)methyl)-N′-((2,4,5,6-tetrahydro-1H-cyclobuta[f]inden-3-yl)carbamoyl)benzenesulfonimidamide], the IC50 lay in the range of 1000 to 5000 nM.
Turning to `CN(C)Cc1ccc(S(N)(=O)=NC(=O)Nc2c3c(cc4c2CC4)CC3)cc1` (stereo not shown) [Example 449, 4-((Dimethylamino)methyl)-N′-(tricyclo[6.2.0.03,6]deca-1,3(6),7-trien-2-ylcarbamoyl)benzenesulfonimidamide], the IC50 fell in the range of 1000 to 5000 nM.
Regarding `CC(C)(O)c1ncc(S(N)(=O)=NC(=O)Nc2c3c(c(Cl)c4c2CCC4)CCC3)s1` (stereo not shown) [Example 450, N′-((8-chloro-1,2,3,5,6,7-hexahydro-s-indacen-4-yl)carbamoyl)-2-(2-hydroxypropan-2-yl)thiazole-5-sulfonimidamide], the IC50 lay within 40 to 200 nM.
Same read-out and setting: in the case of `CNC(C)(C)c1ccc(S(N)(=O)=NC(=O)Nc2c3c(cc4c2CCC4)CCC3)c(F)c1` (stereo not shown) [Example 451, 2-Fluoro-N′-(1,2,3,5,6,7-hexahydros-indacen-4-ylcarbamoyl)-4-(2-(methylamino)propan-2-yl)benzenesulfonimidamideonimidamide] it was 200 to 1000 nM.
As for `C=CCc1c2c(c(NC(=O)N=S(N)(=O)c3cc(C(C)(C)O)n(-c4ccccc4)n3)c3c1CCC3)CCC2` (stereo not shown) [Example 458, N′-((8-allyl-1,2,3,5,6,7-hexahydro-s-indacen-4-yl)carbamoyl)-5-(2-hydroxypropan-2-yl)-1-phenyl-1H-pyrazole-3-sulfonimidamide], the IC50 lay within 1000 to 5000 nM.
The same measure, in the same setting: in the case of `C/C=C/c1c2c(c(NC(=O)N=S(N)(=O)c3cc(C(C)(C)O)n(-c4ccccc4)n3)c3c1CCC3)CCC2` (stereo not shown) [Example 459, (E)-5-(2-hydroxypropan-2-yl)-1-phenyl-N′-((8-(prop-1-en-1-yl)-1,2,3,5,6,7-hexahydro-s-indacen-4-yl)carbamoyl)-1H-pyrazole-3-sulfonimidamide] it was 1000 to 5000 nM; in that of `NS(=O)(=NC(=O)Nc1c2c(cc3c1CCC3)CCC2)c1cnc(C(O)(CO)CO)s1` (stereo not shown) [Example 460, N′-((1,2,3,5,6,7-hexahydro-s-indacen-4-yl)carbamoyl)-2-(1,2,3-trihydroxypropan-2-yl) thiazole-5-sulfonimidamide], 40 to 200 nM; in that of `CC(C)(O)c1cncc(S(N)(=O)=NC(=O)Nc2c3c(c(C#N)c4c2CCC4)CCC3)c1` (stereo not shown) [Example 461, N′-((8-cyano-1,2,3,5,6,7-hexahydro-s-indacen-4-yl)carbamoyl)-5-(2-hydroxypropan-2-yl)pyridine-3-sulfomidamide], 200 to 1000 nM.
Turning to `NS(=O)(=NC(=O)Nc1c2c(cc3c1CCC3)CCC2)c1ccc(CN2CCC2)cc1F` (stereo not shown) [Example 462, 4-(azetidin-1-ylmethyl)-2-fluoro-N′-((1,2,3,5,6,7-hexahydro-s-indacen-4-yl)carbamoyl)benzenesulfonimidamide], the IC50 lay in the range of 1000 to 5000 nM.
For the molecule `NS(=O)(=NC(=O)Nc1c2c(cc3c1CC3)CCC2)c1ccc(CN2CCC2)cc1F` (stereo not shown) [Example 463, 4-(azetidin-1-ylmethyl)-2-fluoro-N′-((2,4,5,6-tetrahydro-1H-cyclobuta[f]inden-3-yl)carbamoyl)benzenesulfonimidamide], the IC50 lay within 1000 to 5000 nM.
With `CC(C)(O)c1ccc(S(N)(=O)=NC(=O)Nc2cc3c(c4c2CCC4)CCC3)cn1` (stereo not shown) [Example 464, N′-((1,2,3,6,7,8-hexahydro-as-indacen-4-yl)carbamoyl)-6-(2-hydroxypropan-2-yl)pyridine-3-sulfonimidamide], the IC50 fell in the range of 1000 to 5000 nM.
Take `Cc1c(C2CC2)cc2c(c1NC(=O)N=S(N)(=O)c1cc(C(C)(C)O)cs1)CCC2` (stereo not shown) [Example 465, N′-((6-cyclopropyl-5-methyl-2,3-dihydro-1H-inden-4-yl)carbamoyl)-4-(2-hydroxypropan-2-yl)thiophene-2-sulfonimidamide]: the IC50 lay within 40 to 200 nM.
Turning to `CC(C)(O)c1csc(S(N)(=O)=NC(=O)Nc2c3c(cc4c2C(=O)CC4)CCC3)c1` (stereo not shown) [Example 466, 4-(2-Hydroxypropan-2-yl)-N′-((3-oxo-1,2,3,5,6,7-hexahydro-s-indacen-4-yl)carbamoyl)thiophene-2-sulfonimidamide], the IC50 is 200 to 1000 nM.
`CC(C)(O)c1csc(S(N)(=O)=NC(=O)Nc2c3c(cc4c2CC4)CCC3)c1` (stereo not shown) [Example 467, 4-(2-Hydroxypropan-2-yl)-N′-((2,4,5,6-tetrahydro-1H-cyclobuta[f]inden-3-yl)carbamoyl)thiophene-2-sulfonimidamide]: the IC50 fell in the range of 40 to 200 nM.
Same read-out and setting: the figure for `Cc1c(C2CC2)cc2c(c1NC(=O)N=S(N)(=O)c1cnc(C(C)(C)O)s1)CCC2` (stereo not shown) [Example 468] is 40 to 200 nM; for `CC(C)(O)c1ccc(S(N)(=O)=NC(=O)Nc2c3c(cc4c2C(=O)CC4)CCC3)cn1` (stereo not shown) [Example 469, 6-(2-Hydroxypropan-2-yl)-N′-((3-oxo-1,2,3,5,6,7-hexahydro-s-indacen-4-yl)carbamoyl)pyridine-3-sulfonimidamide] it is 1000 to 5000 nM.
Still for that read-out and setting: in the case of `CC(C)(O)c1ccc(S(N)(=O)=NC(=O)Nc2c3c(c(C#N)c4c2CCC4)CCC3)cn1` (stereo not shown) [Example 470, N′-((8-cyano-1,2,3,5,6,7-hexahydro-s-indacen-4-yl)carbamoyl)-6-(2-hydroxypropan-2-yl)pyridine-3-sulfonimidamide] it was 200 to 1000 nM; in that of `CN(C)C(c1ccc(S(N)(=O)=NC(=O)Nc2c3c(cc4c2CCC4)CCC3)cc1)C(F)F` (stereo not shown) [Example 474, 4-(1-(Dimethylamino)-2,2-difluoroethyl)-N-((1,2,3,5,6,7-hexahydro-s-indacen-4-yl)carbamoyl)benzenesulfonimidamide], 1000 to 5000 nM; in that of `CC(C)(O)c1nc(CO)c(S(N)(=O)=NC(=O)Nc2c3c(cc4c2CCC4)CCC3)s1` (stereo not shown) [Example 475, N′-((1,2,3,5,6,7-hexahydro-s-indacen-4-yl)carbamoyl)-4-(hydroxymethyl)-2-(2-hydroxypropan-2-yl)thiazole-5-sulfonimidamide], 40 to 200 nM.
On to `CC(C)c1cc(S(N)(=O)=NC(=O)Nc2c3c(cc4c2CCC4)CCC3)c(F)cn1` (stereo not shown) [Example 478, 5-Fluoro-N′-((1,2,3,5,6,7-hexahydro-s-indacen-4-yl)carbamoyl)-2-isopropylpyridine-4-sulfonimidamide], for which the IC50 fell in the range of 200 to 1000 nM.
In the case of `CN1CCc2cc(S(N)(=O)=NC(=O)Nc3c4c(cc5c3CCC5)CCC4)sc2C1` (stereo not shown) [Example 479, N′-((1,2,3,5,6,7-hexahydro-s-indacen-4-yl)carbamoyl)-6-methyl-4,5,6,7-tetrahydrothieno[2,3-c]pyridine-2-sulfonimidamide], the IC50 lay within 200 to 1000 nM.
Turning to `CN(C)C(CF)c1ccc(S(N)(=O)=NC(=O)Nc2c3c(cc4c2CCC4)CCC3)cc1` (stereo not shown) [Example 480, 4-(1-(Dimethylamino)-2-fluoroethyl)-N′-((1,2,3,5,6,7-hexahydro-s-indacen-4-yl)carbamoyl)benzenesulfonimidamide], the IC50 lay within 1000 to 5000 nM.

The test is the same for the next values; noted with them: hTHP-1 assay containing 2% fetal bovine serum, Table B2, class symbols; read-out: IC50.
Turning to `NS(=O)(=NC(=O)Nc1c2c(cc3c1CCC3)CCC2)c1ccc(C2CCCN2)cc1` (stereo not shown) [Example 447, N′-((1,2,3,5,6,7-hexahydro-s-indacen-4-yl)carbamoyl)-4-(pyrrolidin-2-yl)benzenesulfonimidamide], the IC50 lay within 1000 to 5000 nM.
Still for that read-out and setting: the figure for `COCc1nc(C(C)(C)O)sc1S(N)(=O)=NC(=O)Nc1c2c(c(C#N)c3c1CCC3)CCC2` (stereo not shown) [Example 454, N′-((8-cyano-1,2,3,5,6,7-hexahydro-s-indacen-4-yl)carbamoyl)-2-(2-hydroxypropan-2-yl)-4-(methoxymethyl)thiazole-5-sulfonimidamide] is 200 to 1000 nM.
On the same count and under the same terms, in the case of `CC(C)(O)c1cnc(S(N)(=O)=NC(=O)Nc2c3c(cc4c2CCC4=O)CCC3)s1` (stereo not shown) [Example 455, 5-(2-Hydroxypropan-2-yl)-N′-((1-oxo-1,2,3,5,6,7-hexahydro-s-indacen-4-yl)carbamoyl)thiazole-2-sulfonimidamide] it was 1000 to 5000 nM; in that of `CC(C)(O)c1ccnc(S(N)(=O)=NC(=O)Nc2c3c(c(C#N)c4c2CCC4)CCC3)c1` (stereo not shown) [Example 456, N′-((8-cyano-1,2,3,5,6,7-hexahydro-s-indacen-4-yl)carbamoyl)-4-(2-hydroxypropan-2-yl)pyridine-2-sulfonimidamide], 200 to 1000 nM; in that of `COc1ccc(Cn2nc(S(N)(=O)=NC(=O)Nc3c4c(cc5c3CCC5)CCC4)cc2C(C)(C)O)cc1` (stereo not shown) [Example 457, N′-((1,2,3,5,6,7-hexahydro-s-indacen-4-yl)carbamoyl)-5-(2-hydroxypropan-2-yl)-1-(4-methoxybenzyl)-1H-pyrazole-3-sulfonimidamide], 200 to 1000 nM.
Take `CC(C)(O)c1cc(S(N)(=O)=NC(=O)Nc2c3c(cc4c2CCC4)CCC3)sc1-c1ccccc1` (stereo not shown) [Example 477, N′-((1,2,3,5,6,7-hexahydro-s-indacen-4-yl)carbamoyl)-4-(2-hydroxypropan-2-yl)-5-phenylthiophene-2-sulfomidamide]: the IC50 fell in the range of 200 to 1000 nM.

The values are drawn from US20230051589A1, “COMPOUNDS AND COMPOSITIONS FOR TREATING CONDITIONS ASSOCIATED WITH NLRP ACTIVITY” (Novartis AG, priority 2018, published 2023).
